# Test results reported in patent US6737383B1, “Herbicidal oxadiazolidines” (priority 1999, dated 2004).
# Key:
# rape = experiment: Test B pre/postemergence rape; assay type: in vivo, Brassica napus; details: for Plant response rating, Rape: scale of 0 to 10 where 0 is no effect and 10 is complete control
# Outline: (§1)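 Herbicidal effect was estimated by eye on a ten-point control scale after plants spent twelve to sixteen days in a greenhouse following soil or foliar treatment. Foliar sprays targeted plants at one to four leaves; all doses were formulated in a non-phytotoxic solvent with surfactant.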
# pigweed = experiment: Test B pre/postemergence pigweed; assay type: in vivo, Amaranthus retroflexus; details: for Plant response rating, Redroot pigweed: scale of 0 to 10 where 0 is no effect and 10 is complete control
# Outline: as §1
# surinam grass = experiment: Test B pre/postemergence surinam grass; assay type: in vivo, Brachiaria decumbens
# Outline: as §1
# sugar beet = experiment: Test B pre/postemergence sugar beet; assay type: in vivo, Beta vulgaris; details: for Plant response rating, Sugarbeets: scale of 0 to 10 where 0 is no effect and 10 is complete control
# Outline: as §1
# morningglory = experiment: Test B pre/postemergence morningglory; assay type: in vivo, Ipomoea hederacea; details: for Plant response rating, Morningglory: scale of 0 to 10 where 0 is no effect and 10 is complete control
# Outline: as §1
# smallflower flatsedge = experiment: Test B flood test smallflower flatsedge; assay type: in vivo, Cyperus difformis
# Outline: (§2)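 Flood test on plants grown to the 2-leaf stage; treated plants kept in greenhouse twelve to sixteen days, then visually rated against controls on a 0 (no effect) to 10 (complete control) scale.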
# soybean = experiment: Test B pre/postemergence soybean; assay type: in vivo, Glycine max; details: for Plant response rating, Soybean: scale of 0 to 10 where 0 is no effect and 10 is complete control
# Outline: as §1
# velvetleaf = experiment: Test B pre/postemergence velvetleaf; assay type: in vivo, Abutilon theophrasti; details: for Plant response rating, Velvetleaf: scale of 0 to 10 where 0 is no effect and 10 is complete control
# Outline: as §1
# giant foxtail = experiment: Test B pre/postemergence giant foxtail; assay type: in vivo, Setaria faberii; details: for Plant response rating, Giant foxtail: scale of 0 to 10 where 0 is no effect and 10 is complete control
# Outline: as §1
# cocklebur = experiment: Test B pre/postemergence cocklebur; assay type: in vivo, Xanthium strumarium
# Outline: as §1
# bedstraw = experiment: Test B pre/postemergence bedstraw; assay type: in vivo, Galium aparine
# Outline: as §1
# purple nutsedge = experiment: Test B pre/postemergence purple nutsedge; assay type: in vivo, Cyperus rotundus; details: for Plant response rating, Nutsedge: scale of 0 to 10 where 0 is no effect and 10 is complete control
# Outline: as §1
# bamyardgrass = experiment: Test B flood test barnyardgrass; assay type: in vivo, Echinochloa crus-galli
# Outline: as §2
# blackgrass = experiment: Test B pre/postemergence blackgrass; assay type: in vivo, Alopecurus myosuroides
# Outline: as §1
# duck salad = experiment: Test B flood test duck salad; assay type: in vivo, Heteranthera limosa
# Outline: as §2
# corn = experiment: Test B pre/postemergence corn; assay type: in vivo, Zea mays
# Outline: as §1
# [1] = Postemergence, Rate 250 g/ha, scale 0 to 10
# [2] = Preemergence, Rate 250 g/ha, scale 0 to 10, 0 is no effect, 10 is complete control
# [3] = Preemergence, Rate 500 g/ha, scale 0 to 10, 0 is no effect, 10 is complete control
# [4] = Rate 62 g/ha, Postemergence, scale 0 to 10 (0 no effect, 10 complete control)
# [5] = Rate 125 g/ha, Postemergence, scale 0 to 10, 0 is no effect, 10 is complete control
# [6] = Postemergence, Rate 500 g/ha, scale of 0 to 10 where 0 is no effect and 10 is complete control
# [7] = Preemergence, Rate 62 g/ha, scale of 0 to 10 where 0 is no effect and 10 is complete control
# [8] = Preemergence, Rate 125 g/ha, scale of 0 to 10 where 0 is no effect and 10 is complete control
# [9] = Rate 62 g/ha, flood test species, Pre-emergence, visual evaluation after twelve to sixteen days
# [10] = Rate 125 g/ha, under heading Pre-emergence, flood test species, visual evaluation after twelve to sixteen days
# [11] = Rate 250 g/ha, Pre-emergence (flood test species), scale 0 to 10, 0 is no effect, 10 is complete control
# [12] = Rate 500 g/ha, Pre-emergence, flood test species, scale 0 to 10 (0 no effect, 10 complete control)
smiles,measurement,setting,value
CC(C)N(C(=O)n1oc(=O)n(C(C)C(=O)N(C)C)c1=O)c1ccccc1 (stereo not shown) [Compound 479],Rape plant response rating,rape; [1],0
same,"Plant response rating, Rape","rape; Preemergence, Rate 62 g/ha",0
same,"Plant response rating, Rape","rape; Preemergence, Rate 125 g/ha",0
same,Rape plant response rating,rape; [2],1
same,Rape plant response rating,rape; [3],4
same,Rape plant response rating,rape; [4],0
same,Rape plant response rating,rape; [5],0
same,Redroot pigweed plant response rating,pigweed; [1],2
same,"Plant response rating, Redroot pigweed","pigweed; Preemergence, Rate 62 g/ha",0
same,"Plant response rating, Redroot pigweed","pigweed; Preemergence, Rate 125 g/ha",3
same,Redroot pigweed plant response rating,pigweed; [2],6
same,Redroot pigweed plant response rating,pigweed; [3],6
same,Redroot pigweed plant response rating,pigweed; [4],0
same,Redroot pigweed plant response rating,pigweed; [5],2
same,B. signalgrass plant response rating,"surinam grass; Postemergence, Rate 250 g/ha, scale 0 to 10, 0 no effect, 10 complete control",3
same,B. signalgrass plant response rating,surinam grass; [6],7
same,"Plant response rating, B. signalgrass",surinam grass; [7],0
same,"Plant response rating, B. signalgrass",surinam grass; [8],5
same,B. signalgrass plant response rating,surinam grass; [2],6
same,B. signalgrass plant response rating,surinam grass; [3],9
same,B. signalgrass plant response rating,surinam grass; [4],0
same,B. signalgrass plant response rating,surinam grass; [5],2
same,Sugarbeets plant response rating,sugar beet; [1],0
same,"Plant response rating, Sugarbeets","sugar beet; Preemergence, Rate 62 g/ha",0
same,"Plant response rating, Sugarbeets","sugar beet; Preemergence, Rate 125 g/ha",0
same,Sugarbeets plant response rating,sugar beet; [2],2
same,Sugarbeets plant response rating,sugar beet; [3],4
same,Sugarbeets plant response rating,sugar beet; [4],0
same,Sugarbeets plant response rating,sugar beet; [5],0
same,Morningglory plant response rating,morningglory; [1],10
same,"Plant response rating, Morningglory","morningglory; Preemergence, Rate 62 g/ha",0
same,"Plant response rating, Morningglory","morningglory; Preemergence, Rate 125 g/ha",0
same,Morningglory plant response rating,morningglory; [2],4
same,Morningglory plant response rating,morningglory; [3],4
same,Morningglory plant response rating,morningglory; [4],7
same,Morningglory plant response rating,morningglory; [5],10
same,"Plant response rating, S. Flatsedge (0 to 10 scale, 0 is no effect, 10 is complete control)",smallflower flatsedge; [9],0
same,"S. Flatsedge plant response rating (0 to 10 scale, 0 is no effect, 10 is complete control)",smallflower flatsedge; [10],0
same,S. Flatsedge plant response rating,smallflower flatsedge; [11],0
same,S. Flatsedge plant response rating,smallflower flatsedge; [12],0
same,Soybean plant response rating,soybean; [1],3
same,"Plant response rating, Soybean","soybean; Preemergence, Rate 62 g/ha",0
same,"Plant response rating, Soybean","soybean; Preemergence, Rate 125 g/ha",0
same,Soybean plant response rating,soybean; [2],0
same,Soybean plant response rating,soybean; [3],0
same,Soybean plant response rating,soybean; [4],1
same,Soybean plant response rating,soybean; [5],1
same,Velvetleaf plant response rating,velvetleaf; [1],0
same,"Plant response rating, Velvetleaf","velvetleaf; Preemergence, Rate 62 g/ha",0
same,"Plant response rating, Velvetleaf","velvetleaf; Preemergence, Rate 125 g/ha",0
same,Velvetleaf plant response rating,velvetleaf; [2],1
same,Velvetleaf plant response rating,velvetleaf; [3],5
same,Velvetleaf plant response rating,velvetleaf; [4],0
same,Velvetleaf plant response rating,velvetleaf; [5],0
same,Giant foxtail plant response rating,giant foxtail; [1],6
same,"Plant response rating, Giant foxtail","giant foxtail; Preemergence, Rate 62 g/ha",7
same,"Plant response rating, Giant foxtail","giant foxtail; Preemergence, Rate 125 g/ha",9
same,Giant foxtail plant response rating,giant foxtail; [2],10
same,Giant foxtail plant response rating,giant foxtail; [3],10
same,Giant foxtail plant response rating,giant foxtail; [4],0
same,Giant foxtail plant response rating,giant foxtail; [5],3
same,Cocklebur plant response rating,cocklebur; [1],0
same,Cocklebur plant response rating,cocklebur; [6],0
same,"Plant response rating, Cocklebur",cocklebur; [7],0
same,"Plant response rating, Cocklebur",cocklebur; [8],0
same,Cocklebur plant response rating,cocklebur; [2],0
same,Cocklebur plant response rating,cocklebur; [4],0
same,Cocklebur plant response rating,cocklebur; [5],0
same,Bedstraw plant response rating,bedstraw; [1],0
same,Bedstraw plant response rating,bedstraw; [2],0
same,Bedstraw plant response rating,bedstraw; [3],0
same,Bedstraw plant response rating,bedstraw; [4],0
same,Bedstraw plant response rating,bedstraw; [5],0
same,Nutsedge plant response rating,purple nutsedge; [1],0
same,"Plant response rating, Nutsedge","purple nutsedge; Preemergence, Rate 62 g/ha",0
same,"Plant response rating, Nutsedge","purple nutsedge; Preemergence, Rate 125 g/ha",0
same,Nutsedge plant response rating,purple nutsedge; [2],0
same,Nutsedge plant response rating,purple nutsedge; [4],0
same,Nutsedge plant response rating,purple nutsedge; [5],0
same,"Plant response rating, Barnyardgrass (0 to 10 scale, 0 is no effect, 10 is complete control)",bamyardgrass; [9],0
same,"Barnyardgrass plant response rating (0 to 10 scale, 0 is no effect, 10 is complete control)",bamyardgrass; [10],0
same,Barnyardgrass plant response rating,bamyardgrass; [11],0
same,Barnyardgrass plant response rating,bamyardgrass; [12],0
same,Blackgrass plant response rating,blackgrass; [1],4
same,Blackgrass plant response rating,blackgrass; [6],7
same,"Plant response rating, Blackgrass",blackgrass; [7],2
same,"Plant response rating, Blackgrass",blackgrass; [8],6
same,Blackgrass plant response rating,blackgrass; [2],8
same,Blackgrass plant response rating,blackgrass; [3],9
same,Blackgrass plant response rating,blackgrass; [4],0
same,Blackgrass plant response rating,blackgrass; [5],0
same,"Plant response rating, Ducksalad (0 to 10 scale, 0 is no effect, 10 is complete control)",duck salad; [9],0
same,"Ducksalad plant response rating (0 to 10 scale, 0 is no effect, 10 is complete control)",duck salad; [10],0
same,Ducksalad plant response rating,duck salad; [11],0
same,Ducksalad plant response rating,duck salad; [12],0
same,Corn plant response rating,corn; [1],0
same,Corn plant response rating,corn; [6],4
same,"Plant response rating, Corn",corn; [7],0
same,"Plant response rating, Corn",corn; [8],0
same,Corn plant response rating,corn; [2],0
same,Corn plant response rating,corn; [3],3
same,Corn plant response rating,corn; [4],0
same,Corn plant response rating,corn; [5],0
